ChEMBL document CHEMBL3227988, “Synthesis and antiviral activities of arabinofuranosyl-5-ethylpyrimidine nucleosides. Selective antiherpes activity of 1-(beta-D-arabinofuranosyl)-5-ethyluracil” (J Med Chem, 1979)
Values after ≈ are worked out from the molar mass of the structure shown. Active and inactive are the calls of the source. No cut-off for these calls is given here.

Assays:
Vaccinia virus [1] = assay: Antiviral activity against Vaccinia virus infected in human skin fibroblast cells assessed as inhibition of virus-induced cytopathogenicity treated immediately after virus adsorption measured 2 to 3 days after virus infection; format: functional; conditions: Orthopoxvirus vaccinia
Vaccinia virus [2] = assay: Antiviral activity against Vaccinia virus infected in human skin fibroblast cells assessed as inhibition of virus-induced cytopathogenicity at 200 ug/ml treated immediately after virus adsorption measured 2 to 3 days after virus infection; format: functional, organism-based; conditions: Orthopoxvirus vaccinia

| SMILES | MIC (Vaccinia virus [1]) | inhibition (Vaccinia virus [2]) |
| --- | --- | --- |
| O=c1ccn([C@@H]2O[C@H](CO)[C@@H](O)[C@@H]2O)c(=O)[nH]1 [ARAURIDINE] | > 200 µg/mL |  |
| Cc1cn([C@@H]2O[C@H](CO)[C@@H](O)[C@@H]2O)c(=O)[nH]c1=O | 2 µg/mL (≈ 7.75 µM) |  |
| CCc1cn([C@H]2O[C@H](CO)[C@@H](O)[C@@H]2O)c(=O)[nH]c1=O |  | inactive |
| CCc1cn([C@@H]2O[C@H](CO)[C@@H](O)[C@@H]2O)c(=O)[nH]c1=O | > 200 µg/mL |  |
| Nc1ccn([C@@H]2O[C@H](CO)[C@@H](O)[C@@H]2O)c(=O)n1 [CYTARABINE] | 0.02 µg/mL (≈ 0.0822 µM) |  |
| CCc1cn([C@@H]2O[C@H](CO)[C@@H](O)[C@@H]2O)c(=O)nc1N | > 200 µg/mL |  |
| CCc1cn([C@H]2O[C@H](CO)[C@@H](O)[C@@H]2O)c(=O)nc1N |  | inactive |
